Patent US9271493B2, “Methods for microbial biofilm destruction” (priority 2012, dated 2016)
Like-named read-outs stand apart in the source and are kept apart here.

Legend:
[1] = tested on: E. coli strain MC4100; test: fibronectin-binding assay (adhesion to fibronectin-coated plates); type: cell-based; settings: MC4100 grown under curli-producing conditions on agar in the presence of compound; dose-dependent
Source text: We employed a commonly used fibronectin-binding assay to determine whether curcumin blocks adhesion of E. coli strain MC4100 to fibronectin-coated plates. MC4100 is the E. coli strain in which curli biogenesis was first described. […] UTI89, on the other hand, is a prototypical biofilm-competent strain that forms biofilms on agar, on plastic, and at an air-liquid interface when expressing curli and cellulose. Since curli are sufficient to mediate binding to fibronectin, the use of MC4100 readily allows one to determine whether a compound or external stimulus can influence curli-dependent adhesion.
(§1) Growth conditions. UTI89, UTI89ΔcsgA, MC4100, and MC4100Δcsg were grown on YESCA (0.5 g/L yeast extract; 10 g/L Casamino acids) agar supplemented with additional compounds as indicated.

[2] = tested on: curli proteins, CsgA and CsgG; test: Western blot analysis of cell-associated curli proteins; type: cell-based, E. coli
Experimental: Western blot analysis. The cell-associated curli proteins, CsgA and CsgG, were examined by immunoblot assays as described (41). Briefly, whole-cell samples with equivalent cell number were prepared as cell pellets of 1 mL cell culture with an OD600 of 1.0. Each pellet was treated with 100 μL hexafluoroisopropanol (HFIP) to dissociate curli subunits (41). HFIP was removed by vacuum centrifugation, and samples were resuspended in SDS-PAGE loading buffer. Protein gel electrophoresis was carried out using 12% SDS-PAGE gels (Invitrogen) and blotted onto […] nitrocellulose transfer membranes (Whatman). The polyclonal rabbit antiserum to CsgA or CsgG was used as the primary antibody and horseradish peroxidase (HRP) conjugated goat anti-rabbit antibody (Pierce) was used as the secondary antibody (55).

[3] = tested on: UTI89; test: colony biofilm formation on YESCA agar; type: cell-based, uropathogenic E. coli; settings: for biofilm formation on agar (colony morphology): UTI89 on YESCA agar
Experimental: as §1
(§2) Biofilm assays. Colony biofilm formation was initiated by spotting 10 μl of overnight bacterial culture onto a YESCA agar plate (Kolodkin-Gal et al. (2010) Science 328:627-629). Colony morphology was observed after designated growth times at 26° C. Biofilm in YESCA broth attached to plastic (polyvinyl chloride, PVC) was determined using the Kolter crystal violet assay as described by O'Toole et al. (1998) Mol. Microbiol. 28:449-461. Briefly, bacterial cells were grown in 96-well PVC plates; unattached cells were washed away; and cells remaining associated with the PVC wells were stained with 0.1% crystal violet. The extent of biofilm formation was quantified by measuring the absorbance of crystal violet at OD595 after dissolving the PVC-associated biomass in 95% ethanol. The percent biofilm represents the increase in biofilm formation in the presence of various concentrations of DMSO and ethanol relative to biofilm formation when no compound was present. The mean of triplicate individual experiments was used and error bars represent the standard deviation. Pellicle formation was initiated by inoculating 4 μL of an overnight bacterial culture grown in YESCA broth in 4 mL YESCA in 12-well-plate wells and incubated at 26° C. Pellicle formation was inspected visually and assessed by perturbation with a pipet tip after 72 hours of growth.

[4] = tested on: UTI89; test: pellicle formation (biofilm at the air-liquid interface); type: cell-based, uropathogenic E. coli; settings: for pellicle formation / biofilm formation at the air-liquid interface: UTI89; for concentration preventing formation of a biofilm at the air-liquid interface: UTI89, complete inhibition
Experimental: as §2

[5] = tested on: UTI89; test: biofilm attached to PVC plastic, 96-well crystal violet assay; type: cell-based, uropathogenic E. coli
Experimental: as §2

[6] = tested on: E. coli; test: biofilm formation attached to Teflon (1 mL Teflon beakers, crystal violet); type: cell-based; settings: 48 hours at 26° C. in YESCA broth
Experimental: FIG. 4. Curcumin and dim ethyl curcumin reduce E. coli biofilm formation attached to Teflon using 1 mL Teflon beakers. After bacterial incubation for 48 hours at 26° C. in YESCA nutrient broth in the presence or absence of compounds, planktonic and loosely associated bacteria were washed from the beakers and adherent bacteria were stained with crystal violet, dissolved in ethanol and quantified by spectrophotometry.
Teflon is often used as a material in various industrial and biomedical applications, including the production of catheters. Teflon is often employed due to its general anti-adherent properties. Yet, even E. coli can adhere to Teflon and forms biofilms on Teflon surfaces. Thus, we also examined the ability of curcumin and DMC to prevent biofilm formation attached to Teflon using small 1-mL Teflon beakers.

[7] = target: T1, curli (Escherichia coli, UniProt P28307); settings: McCrate, Zhou, and Cegelski 2013; cited from earlier work
T1 sequence (P28307 21-151): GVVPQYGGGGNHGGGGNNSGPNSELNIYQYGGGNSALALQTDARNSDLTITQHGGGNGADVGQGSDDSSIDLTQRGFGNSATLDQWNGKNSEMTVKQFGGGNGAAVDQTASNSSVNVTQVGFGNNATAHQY

[8] = target: amyloid β (Homo sapiens, UniProt P05067); settings: oligomer form and fibril form; Yang et al. 2005; cited from earlier work
Chain of amyloid β (P05067 672-713 limits assumed): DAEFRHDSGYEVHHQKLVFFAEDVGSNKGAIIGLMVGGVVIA

[9] = target: Alzheimer's β-amyloid fibrils (Homo sapiens, UniProt P05067); settings: Ono et al. 2004; cited from earlier work
Chain of Alzheimer's β-amyloid fibrils (P05067 672-713 limits assumed): as above

[10] = target: T1, curli; settings: cited from earlier work

## COc1cc(/C=C/C(=O)CC(=O)/C=C/c2ccc(O)c(OC)c2)ccc1O [curcumin]
[1]
  adhesion to the protein fibronectin: reduced adhesion
[2]; MC4100, Western blot
  production of curli proteins: did not influence
[2]; UTI89, Western blot
  curli production: not affected
[3]; UTI89, 5 days of bacterial growth
  biofilm inhibition on agar after 5 days: diminished after 5 days
[3]
  biofilm formation on agar (colony morphology): lost the hallmark rough and wrinkled phenotype
[4]
  pellicle formation / biofilm formation at the air-liquid interface: completely prevent pellicle formation
  concentration preventing formation of a biofilm at the air-liquid interface: 25 µM
[5]
  concentration blocking biofilm formation attached to plastic (PVC): 25 µM
[5]; listed as curumin
  concentration blocking biofilm formation attached to plastic (PVC): 10 µM
[6]
  biofilm formation attached to Teflon: effective at significantly preventing biofilm formation
[7]
  binding to curli: binding to curli
[8]
  binding to amyloid β: bind
[9]
  amyloid fibril formation in vitro: prevent amyloid fibril formation

## LL-37
[10]
  curli formation: inhibits curli formation

## Nc1c(/N=N/c2ccc(-c3ccc(/N=N/c4cc(S(=O)(=O)O)c5ccccc5c4N)cc3)cc2)cc(S(=O)(=O)O)c2ccccc12 [Congo red]
[3]
  biofilm formation on agar (colony morphology): does not block biofilm formation
[4]
  pellicle formation / biofilm formation at the air-liquid interface: not

## COc1ccc(/C=C/C(=O)CC(=O)/C=C/c2ccc(OC)c(OC)c2)cc1OC [DMC, dimethoxycurcumin]
[4]
  concentration preventing formation of a biofilm at the air-liquid interface: 10 µM
[5]
  concentration blocking biofilm formation attached to plastic (PVC): 10 µM
